Source: US7211577B2, “Water-soluble phenylpyridazine derivative and medicine containing the same” (Kowa Co., Ltd., priority 2003, dated 2007)
Where a name gives a salt, the structure may show the parent alone. Read-outs that look alike come from different tables or passages of the source.

Legend:
[1] = system: interleukin-1β production; test: Inhibitory activity against interleukin-1β production (LPS-stimulated HL-60 cells, ELISA); type: cell-based; conditions: Table 1, lipopolysaccharide 10 μg/mL, culturing for 3 days, read-out: IL-1β production inhibiting activity IC50
Experimental: Inhibitory Activity Against Interleukin-1β Production
HL-60 cells were cultured for 4 days until confluence on RPMI 1640 medium with 10% fetal bovine serum (FBS) added thereto. The medium was centrifuged. The supernatant was discarded, and the cells were then suspended at 1×10^6 cells/mL on RPMI 1640 medium with 3% FBS, and lipopolysaccharide was added to give a final concentration of 10 μg/mL. The culture was inoculated at 1 mL/well to a 24-well plate. A sample compound was added at 1 μL/well, followed by culturing for 3 days. Three days later, the amount of interleukin-1β in each culture was determined by ELISA. Each IC50 value was determined by a comparison in yield with a control to which no test sample was added.

[2] = Water solubility test; type: physicochemical; conditions: for Solubility (%): purified water, from amount of water required for dissolution; for Dissolution in the added water (in words): 100 mL purified water added
Experimental: Experiment 2 (Water Solubility Test) Testing Method
Each sample compound was weighed in the amount shown in Table 3, to which purified water was added in 0.05 mL aliquots. The solubility (%) of the compound was determined based on the amount of water required for its dissolution.

[3] = Oral absorbability test on rats and/or mice; type: in vivo; conditions: orally administered to mice and/or rats, as in Experiment 3
Source text: Experiment 4 (Oral Absorbability Test on Rats and/or Mice)
In a similar manner as in Experiment 3, test compounds of Examples 23, 25, 143, 193, 245, 246, 247, 248 and 249 were orally administered to mice and/or rats to test their oral absorbability.

Solubility (%) [2] [%] | Structure (SMILES) | further results
0.8 | COc1ccc(-c2cc(CN(C)C)c(=O)n(CC3CC3)n2)cc1F.Cl [Example 14, 2-cyclopropylmethyl-4-dimethylaminomethyl-6-(3-fluoro-4-methoxyphenyl)-2H-pyridazin-3-one hydrochloride] | IC50 ([1]; Homo sapiens, 72 h): 3.61 µM
1 | COc1ccc(-c2cc(CN3CCN(Cc4ccccc4)CC3)c(=O)n(CC3CC3)n2)cc1F.Cl.Cl [Example 18, 4-(4-benzyl-1-piperazinyl)methyl-2-cyclopropylmethyl-6-(3-fluoro-4-methoxyphenyl)-2H-pyridazin-3-one dihydrochloride] | –
>20 | COc1ccc(-c2cc(CN3CCNCC3)c(=O)n(CC3CC3)n2)cc1F.Cl.Cl [Example 21, 2-cyclopropylmethyl-6-(3-fluoro-4-methoxyphenyl)-4-(1-piperazinyl)methyl-2H-pyridazin-3-one dihydrochloride] | –
0.4 | COc1ccc(-c2cc(CN)c(=O)n(CC3CC3)n2)cc1F.Cl [Example 25, 4-aminomethyl-2-cyclopropylmethyl-6-(3-fluoro-4-methoxyphenyl)-2H-pyridazin-3-one hydrochloride] | Oral absorbability (FIGS. 2 to 6) [3]: good absorbability
4 | Cc1ccc(-c2cc(CN(C)C)c(=O)n(CC(C)C)n2)cc1.Cl [Example 45, 4-dimethylaminomethyl-2-isobutyl-6-(4-methylphenyl)-2H-pyridazin-3-one hydrochloride] | –
>20 | CCN(CC)Cc1cc(-c2ccc(C)cc2)nn(CC(C)C)c1=O.Cl [Example 47, 4-diethylaminomethyl-2-isobutyl-6-(4-methylphenyl)-2H-pyridazin-3-one hydrochloride] | –
– | Cc1ccc(-c2cc(CN(CCO)CCO)c(=O)n(CC(C)C)n2)cc1 [Example 49, 4-N,N-bis(2-hydroxyethyl)aminomethyl-6-(4-methylphenyl)-2-isobutyl-2H-pyridazin-3-one hydrochloride] | IC50 [1]: 3.53 µM
>20 | Cc1cc(-c2cc(CN(C)C)c(=O)n(CC(C)C)n2)ccc1F.Cl [Example 89, 4-dimethylaminomethyl-6-(4-fluoro-3-methylphenyl)-2-isobutyl-2H-pyridazin-3-one hydrochloride] | –
>20 | CC(C)Cn1nc(-c2ccc(F)c(F)c2)cc(CN(CCO)CCO)c1=O.Cl [Example 108, 4-N,N-bis(2-hydroxyethyl)aminomethyl-6-(3,4-difluorophenyl)-2-isobutyl-2H-pyridazin-3-one hydrochloride] | IC50 [1]: 3.44 µM
10 | Cc1cc(-c2cc(CN3CCN(C)CC3)c(=O)n(CC=Cc3ccc(Cl)cc3)n2)ccc1F.Cl.Cl [Example 143, 2-(4-chlorocinnamyl)-6-(4-fluoro-3-methylphenyl)-4-(4-methyl-1-piperazinyl)methyl-2H-pyridazin-3-one dihydrochloride] | Oral absorbability (FIGS. 2 to 6) [3]: good absorbability; melting point: 229.7 to 243.3 °C (dec.)
>10 | CSc1ccc(-c2cc(CN3CCN(C)CC3)c(=O)n(CC3CC3)n2)cc1.Cl.Cl [Example 149, 2-cyclopropylmethyl-4-(4-methyl-1-piperazinyl)methyl-6-[4-(methylthio)phenyl]-2H-pyridazin-3-one dihydrochloride] | melting point: 234.6 to 239.2 °C
0.5 | CSc1ccc(-c2cc(CN(C)C)c(=O)n(CC3CC3)n2)cc1.Cl [Example 153, 2-cyclopropylmethyl-4-dimethylaminomethyl-6-[4-(methylthio)phenyl]-2H-pyridazin-3-one hydrochloride] | IC50 ([1]; Homo sapiens, 72 h): 0.58 µM; melting point: 230.2 to 232.3 °C
0.08 | COc1ccc(-c2cc(CN)c(=O)n(CC3CCCC3)n2)cc1F.Cl [Example 188, 4-aminomethyl-2-cyclopentylmethyl-6-(3-fluoro-4-methoxyphenyl)-2H-pyridazin-3-one hydrochloride] | –
5 | COc1ccc(-c2cc(CN3CCNCC3)c(=O)n(Cc3ccc(F)cc3)n2)cc1F.Cl.Cl [Example 193, 2-(4-fluorobenzyl)-6-(3-fluoro-4-methoxyphenyl)-4-(1-piperazinyl)methyl-2H-pyridazin-3-one dihydrochloride] | Oral absorbability (FIGS. 2 to 6) [3]: good absorbability
0.2 | COc1ccc(-c2cc(CN)c(=O)n(Cc3ccc(F)cc3)n2)cc1F.Cl [Example 195, 4-aminomethyl-2-(4-fluorobenzyl)-6-(3-fluoro-4-methoxyphenyl)-2H-pyridazin-3-one hydrochloride] | –
0.06 | COc1ccc(-c2cc(CN)c(=O)n(Cc3ccc(Cl)cc3)n2)cc1F.Cl [Example 206, 4-aminomethyl-2-(4-chlorobenzyl)-6-(3-fluoro-4-methoxyphenyl)-2H-pyridazin-3-one hydrochloride] | –
10 | COc1ccc(-c2cc(CCCN3CCNCC3)c(=O)n(CC3CC3)n2)cc1F.Cl.Cl [Example 214, 2-cyclopropylmethyl-6-(3-fluoro-4-methoxyphenyl)-4-[3-(1-piperazinyl)propyl]-2H-pyridazin-3-one dihydrochloride] | –
10 | COc1ccc(-c2cc(CCCN)c(=O)n(CC3CC3)n2)cc1F.Cl [Example 217, 4-(3-aminopropyl)-2-cyclopropylmethyl-6-(3-fluoro-4-methoxyphenyl)-2H-pyridazin-3-one hydrochloride] | –
– | Cc1cc(-c2cc(CN3CCN(C)CC3)c(=O)n(Cc3ccccc3Cl)n2)ccc1F [Example 224, 2-(2-chlorobenzyl)-6-(4-fluoro-3-methylphenyl)-4-(4-methyl-1-piperazinyl)methyl-2H-pyridazin-3-one] | melting point: 149.7 to 150.9 °C
– | Cc1cc(-c2cc(CCCN)c(=O)n(Cc3ccccc3Cl)n2)ccc1F [Example 227, 4-(3-aminopropyl)-2-(2-chlorobenzyl)-6-(4-fluoro-3-methylphenyl)-2H-pyridazin-3-one] | melting point: 80 to 85 °C
– | Cc1cc(-c2cc(CN)c(=O)n(Cc3ccccc3Cl)n2)ccc1F [Example 237, 4-aminomethyl-2-(2-chlorobenzyl)-6-(4-fluoro-3-methylphenyl)-2H-pyridazin-3-one] | melting point: 97.6 to 102.2 °C
– | COc1ccc(-c2cc(CCCN3CCN(C)CC3)c(=O)n(Cc3ccc(F)cc3)n2)cc1F [Example 239, 2-(4-fluorobenzyl)-6-(3-fluoro-4-methoxyphenyl)-4-[3-(4-methyl-1-piperazinyl)propyl]-2H-pyridazin-3-one] | melting point: 108 to 109 °C
10 | COc1ccc(-c2cc(CN3CCN(C)CC3)c(=O)n(Cc3ccc(F)c(F)c3)n2)cc1F.Cl.Cl [Example 245, 2-(3,4-difluorobenzyl)-6-(3-fluoro-4-methoxyphenyl)-4-(4-methyl-1-piperazinyl)methyl-2H-pyridazin-3-one dihydrochloride] | Oral absorbability (FIGS. 2 to 6) [3]: good absorbability
2 | COc1ccc(-c2cc(CN(C)C)c(=O)n(Cc3ccc(F)c(F)c3)n2)cc1F.Cl [Example 246, 2-(3,4-difluorobenzyl)-4-dimethylaminomethyl-6-(3-fluoro-4-methoxyphenyl)-2H-pyridazin-3-one hydrochloride] | Oral absorbability (FIGS. 2 to 6) [3]: good absorbability
10 | Cc1cc(-c2cc(CN3CCN(C)CC3)c(=O)n(CCCc3ccc(Cl)cc3)n2)ccc1F.Cl.Cl [Example 247, 2-[3-(4-chlorophenyl)propyl]-6-(4-fluoro-3-methylphenyl)-4-(4-methyl-1-piperazinyl)methyl-2H-pyridazin-3-one dihydrochloride] | Oral absorbability (FIGS. 2 to 6) [3]: good absorbability
0.06 | COc1ccc(-c2cc(CN3CCN(C)CC3)c(=O)n(CC=Cc3ccc(Cl)cc3)n2)cc1F.Cl.Cl [Example 248, 2-(4-chlorocinnamyl)-6-(3-fluoro-4-methoxyphenyl)-4-(4-methyl-1-piperazinyl)methyl-2H-pyridazin-3-one dihydrochloride] | Oral absorbability (FIGS. 2 to 6) [3]: good absorbability
0.03 | COc1ccc(-c2cc(CN3CCN(CCO)CC3)c(=O)n(CC=Cc3ccc(Cl)cc3)n2)cc1F.Cl.Cl [Example 249, 2-(4-chlorocinnamyl)-6-(3-fluoro-4-methoxyphenyl)-4-[4-(2-hydroxyethyl)-1-piperazinyl]methyl-2H-pyridazin-3-one dihydrochloride] | Oral absorbability (FIGS. 2 to 6) [3]: good absorbability
<0.001 | CCOC(=O)Nc1cc(-c2ccc(OC)cc2)nn(C/C=C/c2ccc(Cl)cc2)c1=O [compound 1, reference compound] | Dissolution in the added water (in words) [2]: (insoluble)
<0.001 | CNC(=O)c1cc(-c2ccc(OC)cc2)nn(CC(C)C)c1=O [compound 2, reference compound] | Dissolution in the added water (in words) [2]: (insoluble)
<0.001 | COc1ccc(-c2cc(C(=O)O)c(=O)n(C/C=C/c3ccc(Cl)cc3)n2)cc1 [compound 4, reference compound] | Dissolution in the added water (in words) [2]: (insoluble)
